Laboratory results: patent publication US12144824B2, “Method for enhancing embryo implantation” (The Flinders University of South Australia, priority 2018, dated 2024)

Experiments:
[1] = system: VEGF production, human Ishikawa endometrial adenocarcinoma cell line; experiment: VEGF production by Ishikawa cells exposed to copper or zinc chloride solutions (multiplex immunoassay); assay type: cell-based
Method: Medium was refreshed every 48 hours. Cells were subcultured using 0.25% trypsin/EDTA (Invitrogen).

[2] = system: LIF production, human Ishikawa endometrial adenocarcinoma cell line; experiment: LIF production by Ishikawa cells exposed to copper or zinc chloride solutions (multiplex immunoassay)
Method: (§1) The human Ishikawa endometrial adenocarcinoma cell line (Sigma-Aldrich; St Louis, MO, United States of America) was used to model the endometrium's response to copper and zinc metal ions (Cu^2+ and Zn^2+). Cells were grown in T75 flasks (Nalge Nunc International, Rochester, NY, United States of America) in Ishikawa medium, consisting of αMEM (Sigma-Aldrich) supplemented with 5% foetal bovine serum (Invitrogen Corp, Carlsbad, CA, United States of America), 2 mM glutamine (Sigma-Aldrich) and 1% non-essential amino acids (Sigma-Aldrich) without antibiotics at 37° C. under a gas atmosphere of 5% CO2 in air. Medium was refreshed every 48 hours. Cells were subcultured using 0.25% trypsin/EDTA (Invitrogen). For metal ion exposure experiments, cells were seeded onto 2-well chamber slides (Ibidi, Martinsried, Germany). After the endometrial cells had attached and reached 80-90% confluence they were then exposed to copper and zinc metal ions using two approaches (salt solution or metal implant) as described below.
(§2) Copper or zinc chloride (Sigma-Aldrich) was dissolved in Ishikawa medium to produce salt solutions at various concentrations in the range of 0.2 μM and 200 μM, before being applied to Ishikawa cells seeded into 2-well chamber slides for a period of 8 hours. Following the 8 hours exposure, culture media were removed, centrifuged at 1000 g for 10 minutes at 4° C. to pellet any cellular debris, and then the supernatants were stored in Eppendorf tubes at −80° C. Subsequently, the supernatants were assayed for both LIF and VEGF content using a multiplex immunoassay system (elisakit.com, Scoresby, VIC, Australia).

[3] = system: LIF production, human Ishikawa endometrial adenocarcinoma cell line
Method: as §1, §2

[4] = system: murine day 3 embryos; experiment: Mouse embryo development and blastocyst outgrowth assay on fibronectin-coated plates; assay type: cell-based; settings: short term exposure
Method: Ishikawa cells were seeded onto 2-well chamber slides in Ishikawa medium until they reached 80-90% confluence. Then, 5 minutes prior to exposure to metal implants, the medium was changed to G2 embryo culture medium, and the Ishikawa cells exposed to copper, zinc or copper-zinc bimetal implants for either 2 or 5 minutes duration (or remained unexposed (control)), and the resulting G2 culture media collected 8 hours later.
To determine whether metal ions were capable of enhancing embryo implantation, post-compaction mouse embryos were exposed to the “conditioned media” prior to undergoing outgrowth assays. In particular, pronucleate oocytes were collected from superovulated female F1 mice ˜21-22 hours post-hCG. Following cumulus cell removal, oocytes were cultured in 20 μl drops (10 embryos/drop) of G1 medium under paraffin oil (Vitrolife) at 37° C. in 6% CO2, 5% O2 and 89% N2. After 48 hours, compacting and morulae stage embryos were randomly transferred to culture in either (i) control G2 medium (Vitrolife) that had not been exposed to Ishikawa cells; (ii) individual culture in 2 μl of control, Ishikawa exposed G2; or (iii) individual culture in 2 μl drops of 2 minute copper-zinc bimetal implant exposed G2 medium. After 48 hours, the capacity of blastocysts to undergo outgrowth was assessed in the following manner. […] All images were collected and analysed at matching magnification.

SMILES: [Cl][Cu][Cl] [CuCl2, copper chloride]
- concentration of peak VEGF production ([1]; 8 hours exposure): 100 µM
- concentration producing a significant increase in VEGF production ([1]; 8 hours exposure): above 20 μM
- lowest amount confirmed to elicit an increase in endometrial VEGF ([1]; Example 1): 20 µM
- concentration exceeding which a relative decline in endometrial VEGF production was observed ([1]; in vitro): exceeding 100 μM
- increase in endometrial LIF production ([2]; CuCl2 200 μM): 4 fold
- LIF production increase above baseline ([2]; CuCl2 200 μM, 8 hours): 420%
- lowest amount confirmed to elicit an increase in endometrial LIF ([2]; Example 1): 20 µM
- concentration producing a significant increase in LIF production ([2]; salt solution in Ishikawa medium, 8 hours exposure): exceeding 2 μM
- toxicity in relation to LIF production [3]: No toxicity

SMILES: [Cl-].[Cl-].[Zn+2] [ZnCl2, zinc chloride]
- concentration from which VEGF production appeared reduced ([1]; 8 hours exposure): ≥ 150 µM
- increase in VEGF compared to controls ([1]; 8 hours exposure): no significant increase
- dose above which toxicity, with a reduction in LIF production, was observed ([2]; 8 hours exposure): exceeding 150 μM

SMILES: [Cu+2] [copper ions]
- toxicity to pre-implantation embryo development [4]: not significant

SMILES: [Zn+2] [zinc ions]
- toxicity to pre-implantation embryo development [4]: not significant
